Experimental data: patent publication US10499642B2, “Isoxazoline-substituted benzamides and analogues as insecticides” (SYNGENTA PARTICIPATIONS AG, priority 2015, dated 2019)

Columns and labels:
Type in all cases: in vivo
Spodoptera littoralis = Spodoptera littoralis (Egyptian cotton leaf worm) cotton leaf disc test; conditions: foliar, 72 h, read-out: control (at least one of mortality, anti-feedant effect, and growth inhibition)
How it was run: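 Cotton leaf discs on agar were sprayed with aqueous dilutions of 10′000 ppm DMSO stocks, dried and infested with five L1 larvae. Mortality, anti-feedant effect and growth inhibition were scored against untreated samples 3 days after infestation. Control = any of these higher than untreated.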

Plutella xylostella = Plutella xylostella (diamond back moth) artificial diet test; conditions: 120 h, read-out: effect in at least one of the two categories (mortality or growth inhibition)
How it was run: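 Artificial diet treated with aqueous compound solutions made from DMSO stocks, dried, then infested with L2 larvae (10 to 15 per well). Mortality and growth inhibition scored versus untreated controls 5 days after infestation. Application rate 200 ppm.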

Diabrotica Balteata = assay: Diabrotica balteata (corn root worm) maize sprout test; conditions: 96 h, read-out: effect in at least one of the two categories (mortality or growth inhibition)
How it was run: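 Maize sprouts on agar were sprayed with aqueous test solutions made from 10′000 ppm DMSO stocks, dried, then infested with 6 to 10 L2 larvae per well. Mortality and growth inhibition versus untreated samples were assessed 4 days after infestation; application rate 200 ppm.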

Thrips tabaci = Thrips tabaci (onion thrips) sunflower leaf disc test; conditions: foliar, 144 h
Experimental: Thrips tabaci (Onion Thrips):
(§1) Sunflower leaf discs were placed on agar in 24-well microtiter plates and sprayed with aqueous test solutions prepared from 10′000 ppm DMSO stock solutions. After drying the leaf discs were infested with a thrips population of mixed ages. The samples were assessed for mortality 6 days after infestation.

Tetranychus urticae = Tetranychus urticae (two-spotted spider mite) bean leaf disc test; conditions: foliar, 192 h
Experimental: Tetranychus urticae (Two-Spotted Spider Mite):
as §1, with “Bean” for “Sunflower”, “discs” for “discs were placed”, “were” for “and”, “mite” for “thrips”, “on mixed population (mobile stages) 8” for “6”

Myzus persicae = Myzus persicae (green peach aphid) sunflower leaf disc test; conditions: foliar, 144 h
Experimental: Myzus persicae (Green Peach Aphid):
Sunflower leaf discs were placed on agar in a 24-well microtiter plate and sprayed with test solutions at an application rate of 200 ppm. After drying, the leaf discs were infested with an aphid population of mixed ages. After an incubation period of 6 days after treatment, samples were checked for mortality. The following compounds gave at least 80% mortality of Myzus persicae: […]

Cc1cc(C2=NO[C@@](c3cc(Cl)c(Cl)c(Cl)c3)(C(F)(F)F)C2)ccc1C(=O)NC1CC(OCCC(C)C)=NO1 (stereo partly drawn) [Compound A106, N-(3-isopentyloxy-4,5-dihydroisoxazol-5-yl)-2-methyl-4-[(5S)-5-(3,4,5-trichlorophenyl)-5-(trifluoromethyl)-4H-isoxazol-3-yl]benzamide]
≥ 80%: percent control (mortality, anti-feedant effect or growth inhibition) at 200 ppm (Spodoptera littoralis) | percent effect (mortality or growth inhibition) at 200 ppm (Plutella xylostella) | percent effect (mortality or growth inhibition) at 200 ppm (Diabrotica Balteata) | mortality at 200 ppm (Thrips tabaci) | mortality at 200 ppm (Tetranychus urticae) | mortality at 200 ppm (Myzus persicae)

CCOCCOC1=NOC(NC(=O)c2ccc(C3=NO[C@@](c4cc(Cl)c(Cl)c(Cl)c4)(C(F)(F)F)C3)cc2C)C1 (stereo partly drawn) [Compound A107, N-[3-(2-ethoxyethoxy)-4,5-dihydroisoxazol-5-yl]-2-methyl-4-[(5S)-5-(3,4,5-trichlorophenyl)-5-(trifluoromethyl)-4H-isoxazol-3-yl]benzamide]
≥ 80%: percent control (mortality, anti-feedant effect or growth inhibition) at 200 ppm (Spodoptera littoralis) | percent effect (mortality or growth inhibition) at 200 ppm (Plutella xylostella) | percent effect (mortality or growth inhibition) at 200 ppm (Diabrotica Balteata) | mortality at 200 ppm (Thrips tabaci) | mortality at 200 ppm (Tetranychus urticae) | mortality at 200 ppm (Myzus persicae)

Cc1cc(C2=NO[C@@](c3cc(Cl)c(F)c(Cl)c3)(C(F)(F)F)C2)ccc1C(=O)NC1CC(Oc2ccc(Cl)cc2)=NO1 (stereo partly drawn) [Compound A108, N-[3-(4-chlorophenoxy)-4,5-dihydroisoxazol-5-yl]-4-[(5S)-5-(3,5-dichloro-4-fluoro-phenyl)-5-(trifluoromethyl)-4H-isoxazol-3-yl]-2-methyl-benzamide]
≥ 80%: percent control (mortality, anti-feedant effect or growth inhibition) at 200 ppm (Spodoptera littoralis) | percent effect (mortality or growth inhibition) at 200 ppm (Plutella xylostella) | percent effect (mortality or growth inhibition) at 200 ppm (Diabrotica Balteata) | mortality at 200 ppm (Thrips tabaci) | mortality at 200 ppm (Tetranychus urticae) | mortality at 200 ppm (Myzus persicae)

Cc1cc(C2=NO[C@@](c3cc(Cl)c(F)c(Cl)c3)(C(F)(F)F)C2)ccc1C(=O)NC1CC(OCC[Si](C)(C)C)=NO1 (stereo partly drawn) [Compound A109]
≥ 80%: percent control (mortality, anti-feedant effect or growth inhibition) at 200 ppm (Spodoptera littoralis) | percent effect (mortality or growth inhibition) at 200 ppm (Plutella xylostella) | percent effect (mortality or growth inhibition) at 200 ppm (Diabrotica Balteata) | mortality at 200 ppm (Thrips tabaci) | mortality at 200 ppm (Tetranychus urticae) | mortality at 200 ppm (Myzus persicae)

Cc1cc(C2=NO[C@@](c3cc(Cl)c(Cl)c(Cl)c3)(C(F)(F)F)C2)ccc1C(=O)NC1CC(OCc2ccccc2)=NO1 (stereo partly drawn) [Compound A110, N-(3-benzyloxy-4,5-dihydroisoxazol-5-yl)-2-methyl-4-[(5S)-5-(3,4,5-trichlorophenyl)-5-(trifluoromethyl)-4H-isoxazol-3-yl]benzamide]
≥ 80%: percent control (mortality, anti-feedant effect or growth inhibition) at 200 ppm (Spodoptera littoralis) | percent effect (mortality or growth inhibition) at 200 ppm (Plutella xylostella) | percent effect (mortality or growth inhibition) at 200 ppm (Diabrotica Balteata) | mortality at 200 ppm (Thrips tabaci) | mortality at 200 ppm (Tetranychus urticae) | mortality at 200 ppm (Myzus persicae)

Cc1cc(C2=NO[C@@](c3cc(Cl)c(Cl)c(Cl)c3)(C(F)(F)F)C2)ccc1C(=O)NC1CC(OCC2CCC2)=NO1 (stereo partly drawn) [Compound A111, N-[3-(cyclobutylmethoxy)-4,5-dihydroisoxazol-5-yl]-2-methyl-4-[(5S)-5-(3,4,5-trichlorophenyl)-5-(trifluoromethyl)-4H-isoxazol-3-yl]benzamide]
≥ 80%: percent control (mortality, anti-feedant effect or growth inhibition) at 200 ppm (Spodoptera littoralis) | percent effect (mortality or growth inhibition) at 200 ppm (Plutella xylostella) | percent effect (mortality or growth inhibition) at 200 ppm (Diabrotica Balteata) | mortality at 200 ppm (Thrips tabaci) | mortality at 200 ppm (Tetranychus urticae) | mortality at 200 ppm (Myzus persicae)

Cc1cc(C2=NO[C@@](c3cc(Cl)c(Cl)c(Cl)c3)(C(F)(F)F)C2)ccc1C(=O)NC1CC(OCc2ccccn2)=NO1 (stereo partly drawn) [Compound A112, 2-methyl-N-[3-(2-pyridylmethoxy)-4,5-dihydroisoxazol-5-yl]-4-[(5S)-5-(3,4,5-trichlorophenyl)-5-(trifluoromethyl)-4H-isoxazol-3-yl]benzamide]
≥ 80%: percent control (mortality, anti-feedant effect or growth inhibition) at 200 ppm (Spodoptera littoralis) | percent effect (mortality or growth inhibition) at 200 ppm (Plutella xylostella) | percent effect (mortality or growth inhibition) at 200 ppm (Diabrotica Balteata) | mortality at 200 ppm (Thrips tabaci) | mortality at 200 ppm (Tetranychus urticae) | mortality at 200 ppm (Myzus persicae)

C#CCCCOC1=NOC(NC(=O)c2ccc(C3=NO[C@@](c4cc(Cl)c(Cl)c(Cl)c4)(C(F)(F)F)C3)cc2C)C1 (stereo partly drawn) [Compound A113, 2-methyl-N-(3-pent-4-ynoxy-4,5-dihydroisoxazol-5-yl)-4-[(5S)-5-(3,4,5-trichlorophenyl)-5-(trifluoromethyl)-4H-isoxazol-3-yl]benzamide]
≥ 80%: percent control (mortality, anti-feedant effect or growth inhibition) at 200 ppm (Spodoptera littoralis) | percent effect (mortality or growth inhibition) at 200 ppm (Plutella xylostella) | percent effect (mortality or growth inhibition) at 200 ppm (Diabrotica Balteata) | mortality at 200 ppm (Thrips tabaci) | mortality at 200 ppm (Tetranychus urticae) | mortality at 200 ppm (Myzus persicae)

CCNC(=O)COC1=NOC(NC(=O)c2ccc(C3=NO[C@@](c4cc(Cl)c(Cl)c(Cl)c4)(C(F)(F)F)C3)cc2C)C1 (stereo partly drawn) [Compound A115, N-[3-[2-(ethylamino)-2-oxo-ethoxy]-4,5-dihydroisoxazol-5-yl]-2-methyl-4-[(5S)-5-(3,4,5-trichlorophenyl)-5-(trifluoromethyl)-4H-isoxazol-3-yl]benzamide]
≥ 80%: percent control (mortality, anti-feedant effect or growth inhibition) at 200 ppm (Spodoptera littoralis) | percent effect (mortality or growth inhibition) at 200 ppm (Plutella xylostella) | percent effect (mortality or growth inhibition) at 200 ppm (Diabrotica Balteata) | mortality at 200 ppm (Thrips tabaci) | mortality at 200 ppm (Tetranychus urticae) | mortality at 200 ppm (Myzus persicae)

CO/N=C(\C)COC1=NOC(NC(=O)c2ccc(C3=NO[C@@](c4cc(Cl)c(Cl)c(Cl)c4)(C(F)(F)F)C3)cc2C)C1 (stereo partly drawn) [Compound A116, N-[3-[(2E)-2-methoxyiminopropoxy]-4,5-dihydroisoxazol-5-yl]-2-methyl-4-[(5S)-5-(3,4,5-trichlorophenyl)-5-(trifluoromethyl)-4H-isoxazol-3-yl]benzamide]
≥ 80%: percent control (mortality, anti-feedant effect or growth inhibition) at 200 ppm (Spodoptera littoralis) | percent effect (mortality or growth inhibition) at 200 ppm (Plutella xylostella) | percent effect (mortality or growth inhibition) at 200 ppm (Diabrotica Balteata) | mortality at 200 ppm (Thrips tabaci) | mortality at 200 ppm (Tetranychus urticae) | mortality at 200 ppm (Myzus persicae)

CO/N=C/C1=NOC(NC(=O)c2ccc(C3=NO[C@@](c4cc(Cl)c(F)c(Cl)c4)(C(F)(F)F)C3)cc2C)C1 (stereo partly drawn) [Compound A119, 4-[(5S)-5-(3,5-dichloro-4-fluoro-phenyl)-5-(trifluoromethyl)-4H-isoxazol-3-yl]-N-[3-[(E)-methoxyiminomethyl]-4,5-dihydroisoxazol-5-yl]-2-methyl-benzamide]
≥ 80%: percent control (mortality, anti-feedant effect or growth inhibition) at 200 ppm (Spodoptera littoralis) | percent effect (mortality or growth inhibition) at 200 ppm (Plutella xylostella) | percent effect (mortality or growth inhibition) at 200 ppm (Diabrotica Balteata) | mortality at 200 ppm (Thrips tabaci) | mortality at 200 ppm (Tetranychus urticae) | mortality at 200 ppm (Myzus persicae)

CNC1=NOC(NC(=O)c2ccc(C3=NO[C@@](c4cc(Cl)c(F)c(Cl)c4)(C(F)(F)F)C3)cc2C)C1 (stereo partly drawn) [Compound A120]
≥ 80%: percent control (mortality, anti-feedant effect or growth inhibition) at 200 ppm (Spodoptera littoralis) | percent effect (mortality or growth inhibition) at 200 ppm (Plutella xylostella) | percent effect (mortality or growth inhibition) at 200 ppm (Diabrotica Balteata) | mortality at 200 ppm (Thrips tabaci) | mortality at 200 ppm (Tetranychus urticae) | mortality at 200 ppm (Myzus persicae)

CC(=O)COC1=NOC(NC(=O)c2ccc(C3=NO[C@@](c4cc(Cl)c(Cl)c(Cl)c4)(C(F)(F)F)C3)cc2C)C1 (stereo partly drawn) [Compound A121, N-(3-acetonyloxy-4,5-dihydroisoxazol-5-yl)-2-methyl-4-[(5S)-5-(3,4,5-trichlorophenyl)-5-(trifluoromethyl)-4H-isoxazol-3-yl]benzamide]
≥ 80%: percent control (mortality, anti-feedant effect or growth inhibition) at 200 ppm (Spodoptera littoralis) | percent effect (mortality or growth inhibition) at 200 ppm (Plutella xylostella) | percent effect (mortality or growth inhibition) at 200 ppm (Diabrotica Balteata) | mortality at 200 ppm (Thrips tabaci) | mortality at 200 ppm (Tetranychus urticae) | mortality at 200 ppm (Myzus persicae)

CCC1(COC2=NOC(NC(=O)c3ccc(C4=NO[C@@](c5cc(Cl)c(Cl)c(Cl)c5)(C(F)(F)F)C4)cc3C)C2)COC1 (stereo partly drawn) [Compound A122, N-[3-[(3-ethyloxetan-3-yl)methoxy]-4,5-dihydroisoxazol-5-yl]-2-methyl-4-[(5S)-5-(3,4,5-trichlorophenyl)-5-(trifluoromethyl)-4H-isoxazol-3-yl]benzamide]
≥ 80%: percent control (mortality, anti-feedant effect or growth inhibition) at 200 ppm (Spodoptera littoralis) | percent effect (mortality or growth inhibition) at 200 ppm (Plutella xylostella) | percent effect (mortality or growth inhibition) at 200 ppm (Diabrotica Balteata) | mortality at 200 ppm (Thrips tabaci) | mortality at 200 ppm (Tetranychus urticae) | mortality at 200 ppm (Myzus persicae)

Cc1cc(C2=NO[C@@](c3cc(Cl)c(Cl)c(Cl)c3)(C(F)(F)F)C2)ccc1C(=O)NC1CC(OCC2(C)COC2)=NO1 (stereo partly drawn) [Compound A123, 2-methyl-N-[3-[(3-methyloxetan-3-yl)methoxy]-4,5-dihydroisoxazol-5-yl]-4-[(5S)-5-(3,4,5-trichlorophenyl)-5-(trifluoromethyl)-4H-isoxazol-3-yl]benzamide]
≥ 80%: percent control (mortality, anti-feedant effect or growth inhibition) at 200 ppm (Spodoptera littoralis) | percent effect (mortality or growth inhibition) at 200 ppm (Plutella xylostella) | percent effect (mortality or growth inhibition) at 200 ppm (Diabrotica Balteata) | mortality at 200 ppm (Thrips tabaci) | mortality at 200 ppm (Tetranychus urticae) | mortality at 200 ppm (Myzus persicae)
